Measurements as given in patent US12145944B2, “Imidazopyrimidines as EED inhibitors and the use thereof” (THE REGENTS OF THE UNIVERSITY OF MICHIGAN, priority 2019, dated 2024).

These molecules were tested on KARPAS422 human B cell lymphoma cell (assay: Cell proliferation, KARPAS422, 7 day treatment (WST-8)). Conditions: Homo sapiens, KARPAS-422, 168 h, anti-proliferative IC50, Karpas 422 cell line, 7 day treatment; read-out: Karpas Cell line.
Assay type: cell-based
Protocol: “N/A” stands for “not assessed”.
Analysis of Cell Proliferation:
To assess the effect of PRC2 inhibition on cell growth, cells were seeded in 96-well cell culture plates at a density of 2 000-3 000 cells/well in 200 µL of culture medium, and treated with serially diluted compounds for 7 days at 37° C. in an atmosphere of 5% CO2. Cell growth was evaluated by a […] WST-8 assay (Dojindo Molecular Technologies) using a Tecan Infinite M1000 multimode microplate reader (Tecan, Morrisville, NC). The WST-8 reagent was added to the plate, incubated for 1-4 h, and read at 450 nm. The readings were normalized to the DMSO-treated cells, and the IC50 was calculated by nonlinear regression analysis using GraphPad Prism 6 software
Molecule `CC(C)N1Cc2cc(C(F)(F)F)ncc2-c2cnc(NCc3c(F)ccc4c3CCO4)n3cnc(c23)C1=O` [compound 73, 12-(((5-fluoro-2,3-dihydrobenzofuran-4-yl)methyl)amino)-4-isopropyl-7-(trifluoromethyl)-4,5-dihydro-3H-2,4,8,11,12a-pentaazabenzo[4,5]cycloocta[1,2,3-cd]inden-3-one] has an IC50 of 11.3 nM. In the case of `CCOC(=O)c1ncn2c(NCc3c(F)cccc3OC)ncc(-c3ccccc3)c12` [compound 130, ethyl 5-((2-fluoro-6-methoxybenzyl)amino)-8-phenylimidazo[1,5-c]pyrimidine-1-carboxylate], the IC50 is reported as > 100 nM. `CNC(=O)c1ncn2c(NCc3cc(OC)ccc3F)ncc(-c3ccccc3)c12` [compound 139, 5-((2-fluoro-5-methoxybenzyl)amino)-N-methyl-8-phenylimidazo[1,5-c]pyrimidine-1-carboxamide] was tested, and the IC50 was > 100 nM. For `CCOC(=O)c1ncn2c(NCc3cc(OC)ccc3F)ncc(-c3ccccc3)c12` [compound 132, ethyl 5-((2-fluoro-5-methoxybenzyl)amino)-8-phenylimidazo[1,5-c]pyrimidine-1-carboxylate], the IC50 was > 100 nM. `CC(F)(F)CN1Cc2cc(C(F)(F)F)ccc2-c2cnc(NCc3c(F)ccc4c3CCO4)n3cnc(c23)C1=O` [compound 63, 4-(2,2-difluoropropyl)-12-(((5-fluoro-2,3-dihydrobenzofuran-4-yl)methyl)amino)-7-(trifluoromethyl)-4,5-dihydro-3H-2,4,11,12a-tetraazabenzo[4,5]cycloocta[1,2,3-cd]inden-3-one] was tested, and the IC50 was 3.69 nM. Work on `O=C1c2ncn3c(NCc4c(F)ccc5c4CCO5)ncc(c23)-c2ccc(C(F)(F)F)nc2CN1CC1CCOC1` (stereo not drawn) [compound 52, 12-(((5-fluoro-2,3-dihydrobenzofuran-4-yl)methyl)amino)-4-((tetrahydrofuran-3-yl)methyl)-7-(trifluoromethyl)-4,5-dihydro-3H-2,4,6,11,12a-pentaazabenzo[4,5]cycloocta[1,2,3-cd]inden-3-one] yielded an IC50 of 0.54 nM. `O=C1c2ncn3c(NCc4c(F)ccc5c4CCO5)ncc(c23)-c2ccc(C(F)(F)F)cc2CN1CC1COCCO1` (stereo not drawn) [compound 68, 4-((1,4-dioxan-2-yl)methyl)-12-(((5-fluoro-2,3-dihydrobenzofuran-4-yl)methyl)amino)-7-(trifluoromethyl)-4,5-dihydro-3H-2,4,11,12a-tetraazabenzo[4,5]cycloocta[1,2,3-cd]inden-3-one] was tested, and the IC50 was 1.35 nM. `CCOC(=O)c1ncn2c(NCc3c(F)ccc(OC)c3Cl)ncc(-c3ccccc3)c12` [compound 133, ethyl 5-((2-chloro-6-fluoro-3-methoxybenzyl)amino)-8-phenylimidazo[1,5-c]pyrimidine-1-carboxylate] was tested, and the IC50 was > 100 nM. `O=C1OCc2cc(OC(F)(F)F)ccc2-c2cnc(NCc3c(F)ccc4c3CCO4)n3cnc1c23` [compound 31, 12-(((5-fluoro-2,3-dihydrobenzofuran-4-yl)methyl)amino)-7-(trifluoromethoxy)-3H,5H-4-oxa-2,11,12a-triazabenzo[4,5]cycloocta[1,2,3-cd]inden-3-one] was tested, and the IC50 was 3.68 nM. In the case of `CC1(O)CC(CN2Cc3cc(C(F)(F)F)ncc3-c3cnc(NCc4c(F)ccc5c4CCO5)n4cnc(c34)C2=O)C1` (stereo not drawn) [compound 49, 12-(((5-fluoro-2,3-dihydrobenzofuran-4-yl)methyl)amino)-4-((3-hydroxy-3-methylcyclobutyl)methyl)-7-(trifluoromethyl)-4,5-dihydro-3H-2,4,8,11,12a-pentaazabenzo[4,5]cycloocta[1,2,3-cd]inden-3-one], the IC50 is reported as 2.78 nM. With `CCOC(=O)c1ncn2c(NCc3cccc4c3OCO4)ncc(-c3ccccc3)c12` [compound 134, ethyl 5-((benzo[d][1,3]dioxol-4-ylmethyl)amino)-8-phenylimidazo[1,5-c]pyrimidine-1-carboxylate] the IC50 was > 100 nM. For `CNC(=O)c1ncn2c(NCc3cccc4c3OCO4)ncc(-c3ccccc3)c12` [compound 141, 5-((benzo[d][1,3]dioxol-4-ylmethyl)amino)-N-methyl-8-phenylimidazo[1,5-c]pyrimidine-1-carboxamide], the IC50 was > 100 nM. `CNC(=O)c1ncn2c(NCc3c(F)ccc(OC)c3Cl)ncc(-c3ccccc3)c12` [compound 140, 5-((2-chloro-6-fluoro-3-methoxybenzyl)amino)-N-methyl-8-phenylimidazo[1,5-c]pyrimidine-1-carboxamide] was tested, and the IC50 was > 100 nM. For `COc1cccc(F)c1CNc1ncc2c3c(ncn13)C(=O)N(C(C)C)Cc1nc(C(F)(F)F)ccc1-2` [compound 71, 12-((2-fluoro-6-methoxybenzyl)amino)-4-isopropyl-7-(trifluoromethyl)-4,5-dihydro-3H-2,4,6,11,12a-pentaazabenzo[4,5]cycloocta[1,2,3-cd]inden-3-one], the IC50 was > 100 nM. Molecule `Cc1ccc2c(n1)CN(CC1CC(C)(O)C1)C(=O)c1ncn3c(NCc4c(F)ccc5c4CCO5)ncc-2c13` (stereo not drawn) [compound 50, 12-(((5-fluoro-2,3-dihydrobenzofuran-4-yl)methyl)amino)-4-((3-hydroxy-3-methylcyclobutyl)methyl)-7-methyl-4,5-dihydro-3H-2,4,6,11,12a-pentaazabenzo[4,5]cycloocta[1,2,3-cd]inden-3-one] has an IC50 of 0.71 nM. `O=C1c2ncn3c(NCc4c(F)ccc5c4CCO5)ncc(c23)-c2ccc(C(F)(F)F)cc2CN1CC1CCOCC1` [compound 66, 12-(((5-fluoro-2,3-dihydrobenzofuran-4-yl)methyl)amino)-4-((tetrahydro-2H-pyran-4-yl)methyl)-7-(trifluoromethyl)-4,5-dihydro-3H-2,4,11,12a-tetraazabenzo[4,5]cycloocta[1,2,3-cd]inden-3-one] gave an IC50 of 0.74 nM. With `CN1CCC(N2Cc3cc(C(F)(F)F)ccc3-c3cnc(NCc4c(F)ccc5c4CCO5)n4cnc(c34)C2=O)CC1` [compound 74, 12-(((5-fluoro-2,3-dihydrobenzofuran-4-yl)methyl)amino)-4-(1-methylpiperidin-4-yl)-7-(trifluoromethyl)-4,5-dihydro-3H-2,4,11,12a-tetraazabenzo[4,5]cycloocta[1,2,3-cd]inden-3-one] the IC50 was 47 nM. For `CNC(=O)c1ncn2c(NCc3ccco3)ncc(-c3ccccc3)c12` [Cpd. No. 128, 5-((furan-2-ylmethyl)amino)-N-methyl-8-phenylimidazo[1,5-c]pyrimidine-1-carboxamide], the IC50 was > 100 nM. With `CNC(=O)c1ncn2c(NCc3c(F)ccc(F)c3OC)ncc(-c3ccccc3)c12` [compound 138, 5-((3,6-difluoro-2-methoxybenzyl)amino)-N-methyl-8-phenylimidazo[1,5-c]pyrimidine-1-carboxamide] the IC50 was > 100 nM. In the case of `O=C1c2ncn3c(NCc4c(F)ccc5c4CCO5)ncc(c23)-c2ccc(C(F)(F)F)nc2CN1CC1CC1` [compound 55, 4-(cyclopropylmethyl)-12-(((5-fluoro-2,3-dihydrobenzofuran-4-yl)methyl)amino)-7-(trifluoromethyl)-4,5-dihydro-3H-2,4,6,11,12a-pentaazabenzo[4,5]cycloocta[1,2,3-cd]inden-3-one], the IC50 is reported as 8.08 nM. With `CCOC(=O)c1ncn2c(NCc3ccco3)ncc(-c3ccccc3)c12` [Cpd. No. 127, ethyl 5-((furan-2-ylmethyl)amino)-8-phenylimidazo[1,5-c]pyrimidine-1-carboxylate] the IC50 was > 100 nM. `CC1(O)CC(CN2Cc3nc(C(F)(F)F)ccc3-c3cnc(NCc4c(F)ccc5c4CCO5)n4cnc(c34)C2=O)C1` (stereo not drawn) [compound 47, 12-(((5-fluoro-2,3-dihydrobenzofuran-4-yl)methyl)amino)-4-((3-hydroxy-3-methylcyclobutyl)methyl)-7-(trifluoromethyl)-4,5-dihydro-3H-2,4,6,11,12a-pentaazabenzo[4,5]cycloocta[1,2,3-cd]inden-3-one] showed an IC50 of 0.65 nM. `CCOC(=O)c1ncn2c(NCc3c(F)ccc4c3CCO4)ncc(-c3ccccc3)c12` [compound 135, ethyl 5-(((5-fluoro-2,3-dihydrobenzofuran-4-yl)methyl)amino)-8-phenylimidazo[1,5-c]pyrimidine-1-carboxylate] gave an IC50 of 7.07 nM. For `CCOC(=O)c1ncn2c(NCc3ccccc3OC)ncc(-c3ccccc3)c12` [compound 129, ethyl 5-((2-methoxybenzyl)amino)-8-phenylimidazo[1,5-c]pyrimidine-1-carboxylate], the IC50 was > 100 nM. In the case of `CC(C)(O)CN1Cc2cc(C(F)(F)F)ncc2-c2cnc(NCc3c(F)ccc4c3CCO4)n3cnc(c23)C1=O` [compound 48, 12-(((5-fluoro-2,3-dihydrobenzofuran-4-yl)methyl)amino)-4-(2-hydroxy-2-methylpropyl)-7-(trifluoromethyl)-4,5-dihydro-3H-2,4,8,11,12a-pentaazabenzo[4,5]cycloocta[1,2,3-cd]inden-3-one], the IC50 is reported as 0.74 nM. Work on `O=C1c2ncn3c(NCc4c(F)ccc5c4CCO5)ncc(c23)-c2ccc(C(F)(F)F)cc2CN1C1CC1` [compound 67, 4-cyclopropyl-12-(((5-fluoro-2,3-dihydrobenzofuran-4-yl)methyl)amino)-7-(trifluoromethyl)-4,5-dihydro-3H-2,4,11,12a-tetraazabenzo[4,5]cycloocta[1,2,3-cd]inden-3-one] yielded an IC50 of 7.78 nM.

Same assay, conditions: anti-proliferative IC50, Karpas 422 cell line, 7 day treatment; read-out: Karpas Cell line
Molecule `O=C1c2ncn3c(NCc4c(F)ccc5c4CCO5)ncc(c23)-c2ccc(F)cc2CN1C1CC1` [compound 64, 4-cyclopropyl-7-fluoro-12-(((5-fluoro-2,3-dihydrobenzofuran-4-yl)methyl)amino)-4,5-dihydro-3H-2,4,11,12a-tetraazabenzo[4,5]cycloocta[1,2,3-cd]inden-3-one] has an IC50 of 2.44 nM.
